Reference: patent US9409952B2, “Peptide-compound cyclization method” (Chugai Seiyaku Kabushiki Kaisha, priority 2011, dated 2016)
Starred links: 1 amine or outer side, 2 acyl side, 3 side chain; linkers in the order of their positions; H or OH if unused. Positions of bridges follow the written chain, without caps; N, C: chain ends. Non-standard residues stand in square brackets, D forms with d. Residues, ends and D or L forms follow the SMILES beside them. *: point of attachment. NMeF = CN[C@@H](Cc1ccccc1)C(=O)O; NMeGABA = CN(CCCC(=O)[*:2])[*:1]; NMeI = CC[C@H](C)[C@H](NC)C(=O)O; NMeβAla = CN(CCC(=O)[*:2])[*:1]; NMeL = CN[C@@H](CC(C)C)C(=O)O; NMeV = CN[C@H](C(=O)O)C(C)C; NMeA = CN[C@@H](C)C(=O)O; Piperidide = C1CCN(*)CC1; dNMeA = CN[C@H](C)C(=O)O; Sar = CNCC(=O)O; tBu = CC(C)(C)*

Legend:
[1] = PAMPA (parallel artificial membrane permeability assay); type: in vitro ADME; conditions: PAMPA; membrane permeation rate (Pe); 50 mM MOPSO buffer pH 6.5 with 5.0% glycocholic acid, 37° C., 18 hours; read-out: iPAMPA Pe
How it was run: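 Artificial membrane was 10% (w/v) egg lecithin plus 0.5% (w/v) cholesterol in dodecane on a PVDF filter. A 10 mM DMSO stock was added at 0.5% (v/v) to donor buffer (50 mM MOPSO, pH 6.5, 5.0% glycocholic acid). After 18 h at 37 °C, LC/MS or LC/UV gave donor and acceptor levels for Pe.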

[2] = Metabolic stability in human hepatic microsome; type: in vitro ADME; conditions: microsomes, pH 7.4; human hepatic microsome, NADPH(+); read-out: CL NADPH(+)

Compound | Papp at 18 hours, 50 µM [1] [×10⁻⁶ cm/s] | microsomal CLint at 1 uM [2] [µL/min/mg]
CC[C@H](C)[C@H]1C(=O)N(C)[C@@H](C(C)C)C(=O)N(C)[C@@H](CC(C)C)C(=O)N[C@@H]([C@@H](C)O)C(=O)N[C@H](C(=O)N2CCCCC2)CC(=O)N(C)CCCC(=O)N[C@@H](Cc2ccccc2)C(=O)N(C)[C@@H](CC(C)C)C(=O)N(C)[C@@H](C)C(=O)N(C)[C@@H](Cc2ccccc2)C(=O)N[C@@H](C)C(=O)N1C [DP-250] ([NMeGABA]F[NMeL][NMeA][NMeF]A[NMeI][NMeV][NMeL]TD-Piperidide; lactam N-11) | 29 | 42
CC[C@H](C)[C@H]1C(=O)N[C@H](C(=O)N2CCCCC2)CC(=O)N(C)CCCC(=O)N(C)[C@@H](CC(C)C)C(=O)N[C@@H](C)C(=O)N(C)[C@@H](CC(C)C)C(=O)N(C)[C@@H](Cc2ccccc2)C(=O)N(C)[C@@H](CC(C)C)C(=O)N[C@@H]([C@@H](C)O)C(=O)N(C)[C@@H](C)C(=O)N(C)[C@@H](Cc2ccccc2)C(=O)N1C [DP-251] ([NMeGABA][NMeL]A[NMeL][NMeF][NMeL]T[NMeA][NMeF][NMeI]D-Piperidide; lactam N-11) | 24 | 45
CC[C@H](C)[C@H]1C(=O)N(C)[C@@H](CC(C)C)C(=O)N[C@@H](Cc2ccccc2)C(=O)N[C@@H]([C@@H](C)O)C(=O)N[C@@H](CC(C)C)C(=O)N(C)[C@@H](Cc2ccccc2)C(=O)N(C)[C@@H](C(C)C)C(=O)N[C@H](C(=O)N2CCCCC2)CC(=O)N[C@H](C)C(=O)N[C@@H](C)C(=O)N1C [DP-252] ([dA]A[NMeI][NMeL]FTL[NMeF][NMeV]D-Piperidide; lactam N-10) | 47 | 119
CC[C@H](C)[C@H]1C(=O)N[C@H](C(=O)N2CCCCC2)CC(=O)N[C@H](C(C)C)C(=O)N[C@@H]([C@@H](C)O)C(=O)N(C)[C@@H](C)C(=O)N(C)[C@@H](C(C)C)C(=O)N[C@@H](Cc2ccccc2)C(=O)N(C)[C@@H](CC(C)C)C(=O)N[C@@H](C)C(=O)N(C)CC(=O)N1C [DP-253] ([dV]T[NMeA][NMeV]F[NMeL]A[Sar][NMeI]D-Piperidide; lactam N-10) | 7.5 | 42
CC[C@H](C)[C@H]1C(=O)N[C@@H](C)C(=O)N[C@H](C(=O)N2CCCCC2)CC(=O)N[C@H](C(C)C)C(=O)N[C@@H](Cc2ccccc2)C(=O)N(C)[C@@H](C(C)C)C(=O)N(C)[C@@H](C)C(=O)N[C@@H]([C@@H](C)O)C(=O)N(C)CC(=O)N(C)[C@@H](CC(C)C)C(=O)N1C [DP-254] ([dV]F[NMeV][NMeA]T[Sar][NMeL][NMeI]AD-Piperidide; lactam N-10) | 3.5 | 13
CC[C@H](C)[C@@H]1NC(=O)[C@H](CC(C)C)N(C)C(=O)[C@H](Cc2ccccc2)N(C)C(=O)[C@@H](C(C)C)NC(=O)C[C@@H](C(=O)N2CCCCC2)NC(=O)[C@H](CC(C)C)N(C)C(=O)[C@H](C)N(C)C(=O)[C@H]([C@@H](C)O)NC(=O)[C@H](Cc2ccccc2)N(C)C(=O)[C@H](C)N(C)C1=O [DP-255] ([dV][NMeF][NMeL]I[NMeA][NMeF]T[NMeA][NMeL]D-Piperidide; lactam N-10) | 48 | 79
CC[C@H](C)[C@H]1C(=O)N(C)[C@@H](CC(C)C)C(=O)N(C)[C@@H](Cc2ccccc2)C(=O)N[C@@H]([C@@H](C)O)C(=O)N(C)[C@@H](Cc2ccccc2)C(=O)N(C)[C@@H](CC(C)C)C(=O)N(C)[C@@H](CC(C)C)C(=O)N[C@H](C(=O)N2CCCCC2)CC(=O)N[C@H](C(C)C)C(=O)N[C@@H](C)C(=O)N1C [DP-256] ([dV]A[NMeI][NMeL][NMeF]T[NMeF][NMeL][NMeL]D-Piperidide; lactam N-10) | 19 | 44
CC[C@H](C)[C@H]1C(=O)N[C@H](C(=O)N2CCCCC2)CC(=O)N[C@H](C(C)C)C(=O)N(C)[C@@H](CC(C)C)C(=O)N(C)[C@@H](Cc2ccccc2)C(=O)N(C)[C@@H](C)C(=O)N[C@@H]([C@@H](C)O)C(=O)N(C)CC(=O)N(C)[C@@H](CC(C)C)C(=O)N[C@@H](COC(C)(C)C)C(=O)N1C [DP-257] ([dV][NMeL][NMeF][NMeA]T[Sar][NMeL]S(tBu)[NMeI]D-Piperidide; lactam N-10) | 33 | 46
CC[C@H](C)[C@@H]1NC(=O)[C@H](C)N(C)C(=O)[C@H](C)N(C)C(=O)C[C@@H](C(=O)N2CCCCC2)NC(=O)[C@H](CC(C)C)N(C)C(=O)[C@H](Cc2ccccc2)N(C)C(=O)[C@H](C)N(C)C(=O)[C@H]([C@@H](C)O)NC(=O)[C@H](Cc2ccccc2)N(C)C(=O)[C@H](CC(C)C)N(C)C1=O [DP-258] ([NMeA][NMeA]I[NMeL][NMeF]T[NMeA][NMeF][NMeL]D-Piperidide; lactam N-10) | 52 | 188
CC[C@H](C)[C@H]1C(=O)N(C)[C@@H](CC(C)C)C(=O)N(C)[C@@H](Cc2ccccc2)C(=O)N[C@@H](CC(C)C)C(=O)N(C)[C@@H](C(C)C)C(=O)N[C@@H](Cc2ccccc2)C(=O)N[C@@H]([C@@H](C)O)C(=O)N[C@H](C(=O)N2CCCCC2)CC(=O)N(C)CCC(=O)N[C@@H](C)C(=O)N1C [DP-259] ([NMeβAla]A[NMeI][NMeL][NMeF]L[NMeV]FTD-Piperidide; lactam N-10) | 28 | 91
CC(C)C[C@H]1C(=O)N[C@@H]([C@@H](C)O)C(=O)N(C)[C@@H](Cc2ccccc2)C(=O)N(C)[C@@H](CC(C)C)C(=O)NCC(=O)N(C)[C@@H](C(C)C)C(=O)N[C@@H](Cc2ccccc2)C(=O)N[C@H](C(=O)N2CCCCC2)CC(=O)N(C)[C@H](C)C(=O)N[C@@H](COC(C)(C)C)C(=O)N1C [DP-260] ([dNMeA]S(tBu)[NMeL]T[NMeF][NMeL]G[NMeV]FD-Piperidide; lactam N-10) | 44 | 259
CC[C@H](C)[C@@H]1NC(=O)[C@H](C)N(C)C(=O)CCCN(C)C(=O)C[C@@H](C(=O)N2CCCCC2)NC(=O)[C@H](CC(C)C)N(C)C(=O)[C@H](C)N(C)C(=O)[C@H]([C@@H](C)O)NC(=O)[C@H](Cc2ccccc2)N(C)C(=O)[C@H](Cc2ccccc2)N(C)C(=O)[C@H](CC(C)C)N(C)C1=O [DP-261] ([NMeGABA][NMeA]I[NMeL][NMeF][NMeF]T[NMeA][NMeL]D-Piperidide; lactam N-10) | 27 | 84
CC[C@H](C)[C@H]1C(=O)N(C)[C@@H](CC(C)C)C(=O)N[C@H](C(=O)N2CCCCC2)CC(=O)N(C)CCCC(=O)N[C@@H]([C@@H](C)O)C(=O)N(C)[C@@H](C)C(=O)N(C)[C@@H](Cc2ccccc2)C(=O)N(C)[C@@H](Cc2ccccc2)C(=O)N(C)[C@@H](CC(C)C)C(=O)NCC(=O)N1C [DP-262] ([NMeGABA]T[NMeA][NMeF][NMeF][NMeL]G[NMeI][NMeL]D-Piperidide; lactam N-10) | 38 | 94
CC(C)C[C@H]1C(=O)N(C)[C@@H](Cc2ccccc2)C(=O)N(C)[C@@H](CC(C)C)C(=O)N[C@H](C(=O)N2CCCCC2)CC(=O)N[C@H](C)C(=O)N[C@@H](C)C(=O)N[C@@H]([C@@H](C)O)C(=O)N(C)[C@@H](C)C(=O)N[C@@H](Cc2ccccc2)C(=O)N1C [DP-263] ([dA]AT[NMeA]F[NMeL][NMeF][NMeL]D-Piperidide; lactam N-9) | 34 | 136
CC(C)C[C@@H]1NC(=O)[C@H](CC(C)C)N(C)C(=O)[C@@H](C(C)C)NC(=O)C[C@@H](C(=O)N2CCCCC2)NC(=O)[C@H](CC(C)C)N(C)C(=O)[C@H](Cc2ccccc2)N(C)C(=O)[C@H](C)N(C)C(=O)[C@H]([C@@H](C)O)NC(=O)[C@H](Cc2ccccc2)N(C)C1=O [DP-264] ([dV][NMeL]L[NMeF]T[NMeA][NMeF][NMeL]D-Piperidide; lactam N-9) | 37 | 94
CC(C)C[C@H]1C(=O)N[C@@H](COC(C)(C)C)C(=O)N[C@H](C(=O)N2CCCCC2)CC(=O)N[C@H](C(C)C)C(=O)N(C)[C@@H](Cc2ccccc2)C(=O)N(C)[C@@H](C)C(=O)N(C)[C@@H](CC(C)C)C(=O)N[C@@H]([C@@H](C)O)C(=O)N(C)[C@@H](C)C(=O)N1C [DP-266] ([dV][NMeF][NMeA][NMeL]T[NMeA][NMeL]S(tBu)D-Piperidide; lactam N-9) | 43 | 134
CC(C)C[C@H]1C(=O)N[C@@H](COC(C)(C)C)C(=O)N[C@H](C(=O)N2CCCCC2)CC(=O)N(C)[C@@H](C)C(=O)N(C)[C@@H](C)C(=O)N(C)[C@@H](Cc2ccccc2)C(=O)N(C)[C@@H](CC(C)C)C(=O)N[C@@H]([C@@H](C)O)C(=O)N(C)[C@@H](C)C(=O)N1C [DP-267] ([NMeA][NMeA][NMeF][NMeL]T[NMeA][NMeL]S(tBu)D-Piperidide; lactam N-9) | 25 | 75
CC(C)C[C@@H]1NC(=O)[C@H](Cc2ccccc2)N(C)C(=O)CCN(C)C(=O)C[C@@H](C(=O)N2CCCCC2)NC(=O)[C@H](CC(C)C)N(C)C(=O)[C@H](C)N(C)C(=O)[C@H]([C@@H](C)O)NC(=O)[C@H](CC(C)C)N(C)C(=O)[C@H](Cc2ccccc2)N(C)C1=O [DP-268] ([NMeβAla][NMeF]L[NMeF][NMeL]T[NMeA][NMeL]D-Piperidide; lactam N-9) | 50 | 508
CC(C)C[C@H]1C(=O)N[C@@H](COC(C)(C)C)C(=O)N[C@H](C(=O)N2CCCCC2)CC(=O)N(C)CCC(=O)N(C)[C@@H](C)C(=O)N(C)[C@@H](Cc2ccccc2)C(=O)N(C)[C@@H](CC(C)C)C(=O)N[C@@H]([C@@H](C)O)C(=O)N(C)[C@@H](C)C(=O)N1C [DP-269] ([NMeβAla][NMeA][NMeF][NMeL]T[NMeA][NMeL]S(tBu)D-Piperidide; lactam N-9) | 11 | 58
